Experiments:
[1] = tested on: bilateral common carotid arteries occlusion C57BL/6J mice; assay: Y-maze test; assay type: in vivo; details: single agent, after 7 days administration; for spontaneous alternation behavior rate (Alternation), memory behavior: high dose 100 mg/kg oral; for spontaneous alternation behavior rate (Alternation): low dose 40 mg/kg oral, compared to distilled water group (Group 2)
Description: (§1) Experimental Example: 10-week-old male C57BL/6J mice (CLEA Japan, Inc. approximately 25 g of average body weight per mouse) were preliminarily acclimated for 1 week, and provided for experiments. Citrulline and glutathione were obtained from KYOWA HAKKO BIO CO., LTD.
(§2) C57BL/6J mice were divided into a sham-operation group (Group 1) and a bilateral common carotid arteries occlusion group, which was performed under halothane anesthesia for 20 minutes. One day after reperfusion, the bilateral common carotid arteries occlusion group was further divided into a distilled water-treated group (Group 2), a low-dose citrulline-treated group (40 mg/kg: Group 3), a low-dose glutathione-treated group (40 mg/kg: Group 4), a high-dose citrulline-treated group (100 mg/kg: Group 5), a high-dose glutathione-treated group (100 mg/kg: Group 6), and a combination treatment group of a low dose of citrulline and a low dose of glutathione (each 40 mg/kg: Group 7). Each sample was orally administered for 12 days. One week after starting administration, learning memory-improving effects were examined by a Y-maze test, a passive avoidance test, and a novel object recognition test. After evaluating learning memory functions, the hippocampus was removed and viability of hippocampal nerve cells was evaluated.
In the Y-maze test, a Y-maze apparatus with three arms (50×16×32 cm) was used. Mice were placed at any one arm of the Y-maze and were allowed to explore freely through the maze for 8 minutes. The sequence of arm entries was recorded. The number of entries into each arm was counted during the measurement time, which was defined as the total number of entries. Of them, the successive entry into the three different arms was examined, and this number was defined as the spontaneous alternation behavior number. The spontaneous alternation behavior number was divided by (the total number of arm entries minus two), and then multiplied by 100, which was defined as the spontaneous alternation behavior rate (Alternation) and used as an index for spontaneous alternation behavior.

[2] = tested on: bilateral common carotid arteries occlusion C57BL/6J mice; assay: Passive avoidance test; assay type: in vivo; details: single agent, after 7 days administration; for latency time spent in the light compartment, memory behavior: high dose 100 mg/kg oral; for latency time spent in the light compartment: low dose 40 mg/kg oral, compared to Group 2
Description: as §1, §2
The passive avoidance test was performed using a box consisting of dark (25×25×25 cm) and light compartments (14×10×25 cm) and being equipped with an electrical stimulation apparatus at the bottom of the dark compartment. During training, as soon as the mouse entered the dark compartment from the light compartment, the door was closed, and an electrical stimulation (0.3 mA, for 2 seconds) was delivered. Twenty four hours after training, the mouse was placed again in the light compartment, and the latency time spent in the light compartment was recorded with a maximum latency of 300 seconds.

[3] = tested on: bilateral common carotid arteries occlusion C57BL/6J mice; assay: Novel object recognition test; assay type: in vivo; details: single agent, after 7 days administration; for frequency of exploring the novel object, memory behavior: high dose 100 mg/kg oral; for frequency of exploring the novel object: low dose 40 mg/kg oral
Description: as §1, §2
The novel object recognition test was performed after mice were individually acclimated to the open field apparatus (35×25×35 cm) for 2 days. During training, mice were allowed to explore freely for 10 minutes in an apparatus where two identical objects were symmetrically placed. After 1 hour, one object was replaced by a novel object, and mice were allowed to explore freely for 5 minutes. Object exploration was defined as standing on the objects, touching the object with the nose, or sniffing the object within 1 cm from the object. A ratio of the frequency of exploring the familiar or novel object over the total exploration frequency was calculated, and used as an index for visual recognition memory.

[4] = tested on: hippocampal nerve cells (CA1 pyramidal cell layer); assay: Evaluation of viability of hippocampal nerve cells; assay type: in vivo, mice; details: single agent, 12 days administration
Description: as §1, §2
Twelve days after bilateral occlusion of the common carotid arteries, mice were anesthetized with pentobarbital sodium, and perfused with ice-cold phosphate buffer (PBS, pH 7.4) until the blood in the body was completely removed. Immediately, mice were perfused with a fixative solution containing 4% paraformaldehyde. The brain tissues were fixed at 4° C. for 24 hours, and coronal sections having a thickness of 50 μm were prepared. Serial sections containing the hippocampus were stained with propidium iodide (PI, 5 μmol/L) dissolved in PBS and observed under a fluorescent microscope. Surviving and non-surviving nerve cells in the CA1 pyramidal cell layer of the hippocampus were counted at 1.4 to 1.8 mm posterior to bregma, and cells with PI-positive nuclei and typical morphological characteristics were defined as […]. The cell viability was calculated from a ratio to the average number of surviving nerve cells in Group 1.

[5] = low dose 40 mg/kg oral, compared to Group 2

Structure (SMILES): NC(=O)NCCC[C@H](N)C(=O)O [citrulline]
- spontaneous alternation behavior rate (Alternation), memory behavior [1]: remarkably improved effect of memory behavior
- spontaneous alternation behavior rate (Alternation) [1]: cannot be improved
- latency time spent in the light compartment, memory behavior [2]: remarkably improved effect of memory behavior
- latency time spent in the light compartment [2]: cannot be improved
- frequency of exploring the novel object, memory behavior [3]: remarkably improved effect of memory behavior
- frequency of exploring the novel object [3]: cannot be increased
- viability of hippocampal nerve cells ([4]; high dose 100 mg/kg oral): nerve cell-protecting effect
- viability of hippocampal nerve cells [4, 5]: cannot be improved

Structure (SMILES): N[C@@H](CCC(=O)N[C@@H](CS)C(=O)NCC(=O)O)C(=O)O [glutathione]
- spontaneous alternation behavior rate (Alternation), memory behavior [1]: remarkably improved effect of memory behavior
- spontaneous alternation behavior rate (Alternation) [1]: cannot be improved
- latency time spent in the light compartment, memory behavior [2]: remarkably improved effect of memory behavior
- latency time spent in the light compartment [2]: cannot be improved
- frequency of exploring the novel object, memory behavior [3]: remarkably improved effect of memory behavior
- frequency of exploring the novel object [3]: cannot be increased
- viability of hippocampal nerve cells ([4]; high dose 100 mg/kg oral): nerve cell-protecting effect
- viability of hippocampal nerve cells [4, 5]: cannot be improved

Source: patent publication US20150265670A1, “AGENT FOR PREVENTING OR IMPROVING DECLINE IN BRAIN FUNCTION” (KYOWA HAKKO BIO CO., LTD., priority 2012, published 2015)
